Where a name gives a salt, the structure may show the parent alone.
Columns and labels:
Pry1 = biological target: T1, Pry1 (Saccharomyces cerevisiae, UniProt P47032); experiment: Microscale thermophoresis (MST) binding to Pry1; details: absence of PSP94, read-out: Kd, sterol binding by Pry1
T1 construct: made in house; host or cells: E. coli BL21
Source text: To confirm the direct interaction of PSP94 with CRISP3 and to test whether PSP94 would also bind other CAP family members such as yeast Pry1, or CRISP2, we performed in vitro protein binding assay using microscale thermophoresis (MST). Therefore, PSP94 and the CAP family members, Pry1, CRISP2, and CRISP3, were expressed as fusion proteins with a C-terminal polyhistidine tag in Escherichia coli, and the proteins were affinity purified on nickel-NTA agarose beads. The purified CAP proteins were then fluorescently labeled using RED-tris-NTA and incubated with varying concentrations of PSP94. […] PSP94 thus has high binding affinity for all three CAP proteins tested, and it also binds the CAP domain of Pry1 (Pry1^CAP) alone.
DNA encoding proteins of interest were PCR amplified and cloned into NcoI and XhoI restriction sites of pET22b, which contains a PelB signal sequence to direct the secretion of expressed protein into the periplasmic space. […] Protein concentration was determined by Lowry assay using the Folin reagent and bovine serum albumin as protein standard.
(§1) MST experiments were performed to assess protein–protein, protein–lipid, and protein–calcium interactions using a Monolith NT.115 (Nanotemper Technologies). […] The dissociation constant Kd was obtained by plotting the normalized fluorescence (Fnorm) against the logarithm of ligand concentration. […]

CRISP2^N97P Y99P = biological target: T2, CRISP2^N97P Y99P (Homo sapiens, UniProt P16562, N97P/Y99P); experiment: MST binding to CRISP2 double mutant N97P Y99P; parameters: species or system mammalian; details: absence of PSP94, read-out: Kd, sterol binding by CRISP2^N97P Y99P
T2 construct: made in house; host or cells: E. coli
T2 sequence (P16562 22-243 N97P/Y99P): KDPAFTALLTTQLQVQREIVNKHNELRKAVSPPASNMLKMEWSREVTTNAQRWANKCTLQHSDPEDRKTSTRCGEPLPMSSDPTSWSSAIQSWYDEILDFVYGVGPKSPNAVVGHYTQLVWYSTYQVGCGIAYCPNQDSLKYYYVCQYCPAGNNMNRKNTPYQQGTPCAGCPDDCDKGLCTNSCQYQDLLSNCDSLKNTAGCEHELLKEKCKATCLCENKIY
Method: Next, we generated all three double mutant combinations of CRISP2: N97P L98G, N97P Y99P, and L98G Y99P. These three double mutant versions of CRISP2 were again expressed as His-tagged proteins in E. coli and purified, and their capacity to bind sterols in the presence or absence of PSP94 was assessed by MST. […] The capacity of the CRISP2^L98G Y99P double mutant to bind sterols even in the presence of PSP94 was confirmed by the in vivo sterol export assay (Fig. 6, A and B). When expressed in yeast cells, the CRISP2^L98G Y99P double mutant was stably expressed and secreted as monitored by Western blotting (Fig. 6C).
MST experiments were performed to assess protein–protein, protein–lipid, and protein–calcium interactions using a Monolith NT.115 (Nanotemper Technologies). Proteins were labeled using the RED-tris-NTA His tag protein labeling kit. Labeled CAP proteins, 100 nM, were mixed with a serial dilution of unlabeled PSP94, PSP9^F24G, cholesterol sulfate, or calcium chloride, prepared in binding buffer (20 mM Tris pH 7.5, 30 mM NaCl, 0.05% Triton X-100). Samples were loaded into MST standard capillaries, and MST measurements were performed using an 80% laser power setting. The dissociation constant Kd was obtained by plotting the normalized fluorescence (Fnorm) against the logarithm of ligand concentration. […]

CRISP2 L98G = biological target: T3, CRISP2 L98G (Homo sapiens, UniProt P16562, L98G); experiment: MST binding to CRISP2 single mutant L98G; parameters: species or system mammalian; details: absence of PSP94, read-out: Kd, sterol binding by CRISP2 L98G
T3 construct: made in house; host or cells: E. coli
T3 sequence (P16562 22-243 L98G): as the sequence (P16562 22-243 N97P/Y99P) above, with P76N, L77G, P78Y counted along it
Source text: (§2) This interaction is thus located outside the hydrophobic loop that harbors the sterol-binding CBM. Based on these structural considerations, it is thus not apparent why and how the interaction between PSP94 and CRISP2 would block sterol binding at the CBM. To investigate this question in more detail, we first performed computational docking studies to identify residues in CRISP2 that are critical for the interaction with PSP94. […] Two of these three interacting residues, N97 and L98, are conserved in all three CAP family members tested here, CRISP2, CRISP3, and Pry1 (Fig. 4A). […]
as §1
(§3) Quadruple mutant cells lacking the acyl-CoA synthetases FAA1 and FAA4 and the yeast CAP family members PRY1 and PRY3 (faa1∆ faa4∆ pry1∆ pry3∆) expressing different combinations of plasmid-borne copies of PRY1, CRISP2, and or PSP94, or their respective empty vectors (pRS423 or pRS426) were cultivated overnight. The export of fatty acids into the culture medium was then quantified. […]

CRISP2 Y99P = biological target: T4, CRISP2 Y99P (Homo sapiens, UniProt P16562, Y99P); experiment: MST binding to CRISP2 single mutant Y99P; parameters: species or system mammalian; details: absence of PSP94, read-out: Kd, sterol binding by CRISP2 Y99P
T4 construct: made in house; host or cells: E. coli
T4 sequence (P16562 22-243 Y99P): as the sequence (P16562 22-243 N97P/Y99P) above, with P76N counted along it
Source text: as §2, §1, §3

T1 sequence (P47032 20-299): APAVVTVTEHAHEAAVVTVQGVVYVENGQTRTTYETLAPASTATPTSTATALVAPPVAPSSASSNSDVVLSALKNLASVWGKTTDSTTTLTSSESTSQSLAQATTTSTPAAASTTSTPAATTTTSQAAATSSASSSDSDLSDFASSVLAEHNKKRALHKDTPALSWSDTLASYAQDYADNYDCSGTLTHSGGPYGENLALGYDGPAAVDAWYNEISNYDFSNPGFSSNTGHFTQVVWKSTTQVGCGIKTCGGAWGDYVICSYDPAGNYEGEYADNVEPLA

Structure (SMILES): CC(C)CCC[C@@H](C)[C@H]1CC[C@H]2[C@@H]3CC=C4C[C@@H](OS(=O)(=O)O)CC[C@]4(C)[C@H]3CC[C@]12C [cholesterol sulfate]
- Kd (Pry1): 3000 ± 1700 nM
- Kd (CRISP2^N97P Y99P): 2700 ± 2300 nM
- Kd (CRISP2 L98G): 95000 ± 2100 nM
- Kd (CRISP2 Y99P): 2500 ± 900 nM

— publication PMC8857485, “Prostate secretory protein 94 inhibits sterol binding and export by the mammalian CAP protein CRISP2 in a calcium-sensitive manner” (The Journal of Biological Chemistry, 2022)
